Like-named read-outs stand apart in the source and are kept apart here.
Experiments:
SNB-75 = assay: NCI SRB assay; format: cell-based, human; details: SNB-75, 5-dose
LOX IMVI = assay: NCI SRB assay; format: cell-based, human
SK-MEL-2 = assay: NCI SRB assay; format: cell-based, human
OVCAR-4 = assay: NCI SRB assay; format: cell-based, human; details: for CC50: read-out: LC50 (the source's name)
OVCAR-8 = assay: NCI SRB assay; format: cell-based, human; details: for CC50: read-out: LC50 (the source's name)
SK-OV-3 = assay: NCI SRB assay; format: cell-based, human; details: for CC50: read-out: LC50 (the source's name)
786-0 = assay: NCI SRB assay; format: cell-based, human; details: for CC50: read-out: LC50 (the source's name)
ACHN = assay: NCI SRB assay; format: cell-based, human; details: for GI50 / TGI / CC50: 5-dose; for CC50: read-out: LC50 (the source's name)
SN12C = assay: NCI SRB assay; format: cell-based, human; details: for CC50: read-out: LC50 (the source's name)
TK-10 = assay: NCI SRB assay; format: cell-based, human; details: for CC50: read-out: LC50 (the source's name)
MCF7 = assay: NCI SRB assay; format: cell-based, human; details: for CC50: read-out: LC50 (the source's name)
BT-549 = assay: NCI SRB assay; format: cell-based, human
T-47D = assay: NCI SRB assay; format: cell-based, human; details: for GI50 / TGI / CC50: 5-dose; for CC50: read-out: LC50 (the source's name)
[1] = tested on: 59 human cancer cell lines representing nine tumour subpanels; assay: NCI SRB assay, panel and subpanel summaries; details: for GI50: Homo sapiens; for Selectivity index: full panel MG-MID / subpanel MG-MID
[2] = Homo sapiens, OVCAR-4, OVCAR-4, 5-dose
[3] = Homo sapiens, SN12C, SN 12 C, 5-dose
[4] = Homo sapiens, MCF7, MCF7, 5-dose

In the case of `Cc1ccc(-c2nc(Nc3ccccc3C(=O)O)c3ccccc3n2)cc1` [6b, 2-((2-(p-Tolyl)quinazolin-4-yl)amino)benzoic acid], the GI50 (SNB-75) is reported as 1.4 µM, the TGI (SNB-75) is reported as 80.3 µM and the TGI (SNB-75; listed as D - 835857) is reported as 8.03E-5 Molar. For the same compound, the CC50 (SNB-75; read-out: LC50 (the source's name)) was under 100 µM, the GI% (LOX IMVI; 10 μM) was 91% and the “Growth Percent” value (LOX IMVI; 1.00E-5 Molar) was 8.57%. It also gave a TGI (LOX IMVI; 5-dose) of 31.6 µM, a TGI (LOX IMVI; 5-dose, listed as D - 835857) of 3.16E-5 Molar and a GI50 (LOX IMVI; Homo sapiens, 5-dose) of 10.2 µM. The CC50 (LOX IMVI; Homo sapiens, 5-dose, read-out: LC50 (the source's name)) was 97.7 µM, the GI50 (SK-MEL-2; Homo sapiens, SK-MEL-2, SK-MEL-2, 5-dose) was 3.65 µM and the CC50 (SK-MEL-2; Homo sapiens, SK-MEL-2, 5-dose, read-out: LC50 (the source's name)) was 83.5 µM. For the same compound, the GI% (SK-MEL-2; SK-MEL-2, 10 μM) was 94%, the “Growth Percent” value (SK-MEL-2; SK-MEL-2, 1.00E-5 Molar) was 5.75% and the GI50 (SK-MEL-2; SK-MEL-2, 5-dose) was 3.7 µM. The TGI (SK-MEL-2; SK-MEL-2, 5-dose) was 15.6 µM, the TGI (SK-MEL-2; SK-MEL-2, 5-dose, listed as D - 835857) was 1.56E-5 Molar and the GI50 (OVCAR-4; [2]) was 8.77 µM. For the same compound, the CC50 (OVCAR-4; [2]) was over 100 µM, the GI% (OVCAR-4; OVCAR-4, 10 μM) was 78% and the “Growth Percent” value (OVCAR-4; OVCAR-4, 1.00E-5 Molar) was 21.83%. It also gave a GI50 (OVCAR-4; OVCAR-4, 5-dose) of 8.8 µM, a TGI (OVCAR-4; OVCAR-4, 5-dose) of under 100 µM and a TGI (OVCAR-4; OVCAR-4, 5-dose, listed as D - 835857) of over 1.00E-4 Molar. The CC50 (OVCAR-4; OVCAR-4, 5-dose) was under 100 µM, the CC50 (OVCAR-8; Homo sapiens, OVCAR-8, OVCAR-8, 5-dose) was over 100 µM and the GI50 (OVCAR-8; Homo sapiens, OVCAR-8, 5-dose) was 18.2 µM. For the same compound, the GI% (OVCAR-8; OVCAR-8, 10 μM) was 69%, the “Growth Percent” value (OVCAR-8; OVCAR-8, 1.00E-5 Molar) was 30.51% and the TGI (OVCAR-8; OVCAR-8, 5-dose) was under 100 µM. The TGI (OVCAR-8; OVCAR-8, 5-dose, listed as D - 835857) was over 1.00E-4 Molar, the CC50 (OVCAR-8; OVCAR-8, 5-dose) was under 100 µM and the CC50 (SK-OV-3; Homo sapiens, SK-OV-3, SK-OV-3, 5-dose) was over 100 µM. For the same compound, the GI50 (SK-OV-3; Homo sapiens, SK-OV-3, 5-dose) was 11.9 µM, the GI% (SK-OV-3; SK-OV-3, 10 μM) was 69% and the “Growth Percent” value (SK-OV-3; SK-OV-3, 1.00E-5 Molar) was 31.32%. The TGI (SK-OV-3; SK-OV-3, 5-dose) was 55.3 µM, the TGI (SK-OV-3; SK-OV-3, 5-dose, listed as D - 835857) was 5.53E-5 Molar and the CC50 (SK-OV-3; SK-OV-3, 5-dose) was under 100 µM. The GI% (786-0; 786-0, 10 μM) was 81%, the “Growth Percent” value (786-0; 786-0, 1.00E-5 Molar) was 18.67% and the TGI (786-0; 786-0, 5-dose) was under 100 µM. The TGI (786-0; 786-0, 5-dose, listed as D - 835857) was over 1.00E-4 Molar, the CC50 (786-0; 786-0, 5-dose) was under 100 µM and the CC50 (786-0; Homo sapiens, 786-0, 786-0, 5-dose) was over 100 µM. The GI50 (786-0; Homo sapiens, 786-0, 5-dose) was 17.1 µM, the GI% (ACHN; 10 μM) was 92% and the “Growth Percent” value (ACHN; 1.00E-5 Molar) was 7.89%. It also gave a GI50 (ACHN) of 6.4 µM, a TGI (ACHN) of 91.1 µM and a TGI (ACHN; listed as D - 835857) of 9.11E-5 Molar. It also gave a CC50 (ACHN) of under 100 µM, a GI50 (ACHN; Homo sapiens) of 6.44 µM and a CC50 (ACHN; Homo sapiens) of over 100 µM. It also gave a CC50 (SN12C; Homo sapiens, SN12C, 5-dose) of over 100 µM, a CC50 (SN12C; [3]) of under 100 µM and a GI50 (SN12C; [3]) of 11 µM. For the same compound, the GI% (SN12C; SN12C, 10 μM) was 78%, the “Growth Percent” value (SN12C; SN12C, 1.00E-5 Molar) was 22.24% and the TGI (SN12C; SN 12 C, 5-dose) was 60.4 µM. For the same compound, the TGI (SN12C; SN12C, 5-dose) was 6.04E-5 Molar, the CC50 (TK-10; Homo sapiens, TK-10, TK-10, 5-dose) was over 100 µM and the GI50 (TK-10; Homo sapiens, TK-10, 5-dose) was 29.3 µM. The GI% (TK-10; TK-10, 10 μM) was 41%, the “Growth Percent” value (TK-10; TK-10, 1.00E-5 Molar) was 58.93% and the TGI (TK-10; TK-10, 5-dose) was under 100 µM. For the same compound, the TGI (TK-10; TK-10, 5-dose, listed as D - 835857) was over 1.00E-4 Molar, the CC50 (TK-10; TK-10, 5-dose) was under 100 µM and the GI50 (MCF7; [4]) was 9.41 µM. For the same compound, the CC50 (MCF7; [4]) was over 100 µM, the GI% (MCF7; MCF7, 10 μM) was 92% and the “Growth Percent” value (MCF7; MCF7, 1.00E-5 Molar) was 7.70%. It also gave a GI50 (MCF7; MCF7, 5-dose) of 9.4 µM, a TGI (MCF7; MCF7, 5-dose) of 89.9 µM and a TGI (MCF7; MCF7, 5-dose, listed as D - 835857) of 8.99E-5 Molar. The CC50 (MCF7; MCF7, 5-dose) was under 100 µM, the GI% (BT-549; BT-549, 10 μM) was 123% and the “Growth Percent” value (BT-549; BT-549, 1.00E-5 Molar) was -23.53%. The TGI (BT-549; BT-549, 5-dose) was 33.8 µM, the TGI (BT-549; BT-549, 5-dose, listed as D - 835857) was 3.38E-5 Molar and the GI50 (BT-549; Homo sapiens, BT-549, 5-dose) was 14.6 µM. For the same compound, the CC50 (BT-549; Homo sapiens, BT-549, 5-dose, read-out: LC50 (the source's name)) was 78.1 µM, the GI% (T-47D; 10 μM) was 89% and the “Growth Percent” value (T-47D; 1.00E-5 Molar) was 10.72%. For the same compound, the GI50 (T-47D) was 6.3 µM, the TGI (T-47D) was 70.0 µM and the TGI (T-47D; listed as D - 835857) was 7.00E-5 Molar. The CC50 (T-47D) was under 100 µM, the GI50 (T-47D; Homo sapiens, T47D) was 6.29 µM and the CC50 (T-47D; Homo sapiens, T47D) was over 100 µM. The “Mean GI %” value ([1]; 10 μM, all cell lines) was 84%, the “Mean Growth Percent” value ([1]; 1.00E-5 Molar, all cell lines) was 15.81% and the GI50 ([1]; read-out: Full panel MG-MID (GI50), full panel) was 12 µM. The GI50 ([1]; read-out: MG-MID (median GI50), Breast cancer subpanel) was 11 µM, the GI50 ([1]; read-out: MG-MID (median GI50), CNS cancer subpanel) was 8.04 µM and the GI50 ([1]; read-out: MG-MID (median GI50), Colon cancer subpanel) was 13.7 µM. It also gave a GI50 ([1]; read-out: MG-MID (median GI50), Leukaemia subpanel) of 8.68 µM, a GI50 ([1]; read-out: MG-MID (median GI50), Melanoma subpanel) of 11.7 µM and a GI50 ([1]; read-out: MG-MID (median GI50), Non-small cell lung cancer subpanel) of 9.24 µM. For the same compound, the GI50 ([1]; read-out: MG-MID (median GI50), Ovarian cancer subpanel) was 15.7 µM, the GI50 ([1]; read-out: MG-MID (median GI50), Prostate cancer subpanel) was 15.2 µM and the GI50 ([1]; read-out: MG-MID (median GI50), Renal cancer subpanel) was 14.7 µM. It also gave a Selectivity index ([1]; Breast cancer) of 1.09, a Selectivity index ([1]; CNS cancer) of 1.49 and a Selectivity index ([1]; Colon cancer) of 0.87. The Selectivity index ([1]; Leukaemia) was 1.38, the Selectivity index ([1]; Melanoma) was 1.02 and the Selectivity index ([1]; Non-small cell lung cancer) was 1.29. The Selectivity index ([1]; Ovarian cancer) was 0.76, the Selectivity index ([1]; Prostate cancer) was 0.78 and the Selectivity index ([1]; Renal cancer) was 0.81.

Source: paper PMC10035947, “Development of novel anilinoquinazoline-based carboxylic acids as non-classical carbonic anhydrase IX and XII inhibitors” (Journal of Enzyme Inhibition and Medicinal Chemistry, 2023)
